We go through two compounds from patent publication US20050106554A1, “Cryopreservation of pluripotent stem cells” (priority 2003, published 2005).

Data set [1] deals with HES cells. The data set can be described thus: Trypan blue exclusion after cryopreservation of HES colonies in suspension. It counts as cell-based, human. The settings on record: DMSO 0 to 10% in freezing medium, Trypan blue (FIG. 1). The method, then:
In order to cryopreserve ES cells in suspension, cells were grown to approximately 1000-10,000 cell colonies on Matrigel™ or a MEF feeder layer. Average colony size was determined by counting colony number in a representative sample, then dispersing cells in the colony by treatment with 10 mg/ml dispase and counting cell number. 1 mg/ml collagenase was used to detach colonies from the plate and the colonies were resuspended in freezing medium containing FBS, DMSO and CM at varying concentrations. Cells were not dispersed during freezing. The solution was not seeded to form extracellular ice. 1 ml of 1-3×10^5 cells/ml were placed in a cryovial and frozen at approximately −1° C. per minute. Initial studies were performed by placing cells in a Nalgene Cryo 1° C. freeze container in a −80° C. freezer, and later samples were frozen in a controlled-rate freezer (Forma Scientific, Model 8026). […] After reaching −80° C., cells were stored in liquid nitrogen. HES cells were harvested from a flat-bottomed 24-well tissue culture plate coated with Matrigel™ by addition of trypsin-EDTA (0.25% trypsin, 1 mM EDTA) until colonies were completely dispersed. HES cells were resuspended in 500 μl HES medium containing 10% FBS. […] Total cell number and the fraction of cells that incorporated Trypan blue were counted on a hemacytometer. […]

Data set [2] concerns HES cells. Kind of data set: Cell viability by MTT and Alamar blue assays after cryopreservation of adherent HES colonies. It counts as cell-based, human. The method, then: In this example, cells were grown to approximately 1000-10,000 cell colonies on Matrigel™ or a MEF feeder layer in a 24 well plate. Average colony size was determined by counting colony number in a representative sample, then dispersing cells in the colony by treatment with 10 mg/ml dispase and counting cell number. The growth medium was aspirated from each well and a top layer of Matrigel™ was poured over the adherent colonies by diluting 6 mg Matrigel™ in 12 ml CM/F+ (conditioned medium+bFGF) and adding 0.5 ml to each well of the 24 well plate. The plate was incubated at 37° C. in a humidified 5% CO2 incubator for 1 hr and the Matrigel™ solution was aspirated from the plate. Then, 0.5 ml growth medium (HES or CM/F+ was added to each well and cells were cultured in the Matrigel™ for up to 2 days. Growth medium was aspirated from each well and 0.5 ml freezing medium containing varying concentrations of FBS, DMSO, and CM was added to each well. The fresh freezing medium was made on the day of freezing. The freezing medium generally contains 10% DMSO, 30% FBS and 60% conditioned HES media. The medium on the plate was aspirated off and replaced with 0.5 ml freezing medium.
The plate was sealed with parafilm and frozen to −80° C. at −1° C. per minute. Initial studies were performed by placing cells in a parafilm-sealed Styrofoam box in a −80° C. freezer, and later samples were frozen in a controlled-rate freezer (Model 8026, Forma Scientific). […] The solution was not seeded to form extracellular ice. The plates containing the cells were then transferred to liquid nitrogen and stored 5-7 days, which was long enough to stabilize the cells but permitted a reasonable experimental throughput.
To thaw the ES cells, plates were placed in a 37° C. water bath and swirled to thaw as rapidly as possible. After thawing, 1 ml fresh CM/F+ medium was added in a drop-wise manner to each well, then aspirated. Fresh media (0.5 ml) was added to each well and the cells were incubated at 37° C. in a humidified 5% CO2 incubator. […]
HES cells were cultured grown on flat-bottomed 24-well tissue culture plates coated with Matrigel™, with 0.5 ml CM/F+ in each well. […] Within an hour, absorbance at 595 nm was measured on a plate reading spectrophotometer (TECAN Genios). A standard curve for the MTT assay (not shown) was generated by growing HES colonies to different concentrations, ranging from 5×10^4 cells per well to 2×10^6 cells per well (determined by counting dispersed cells on a hemacytometer) on a Matrigel™-coated 24 well plate.
HES cells were cultured on flat-bottomed 24-well tissue culture plates coated with Matrigel™, with 0.5 ml CM/F+ in each well. […] Then absorbance was measured on a TECAN Genios plate reader at 595 nm. […]
For orientation: The colour change of resazurin is a common sign of viable cells or microbes.

Another data set relates to HES colonies. The data set can be described thus: Colony recovery (colony count) after cryopreservation of adherent HES colonies. It counts as cell-based, human. The settings on record: adherent without top Matrigel layer, 5 days after thawing. How it is done:
In addition to providing higher cell viability, cryopreservation of adherent colonies increases the number of colonies that are able to remain attached to the surface and eventually grow (i.e., higher recovery rate). […] In referring to FIG. 4, approximately 10^6 HES cells were cultured in the well of a Matrigel™-coated 24 well plate. Colonies in sample a were harvested from the plate as intact colonies (were not dispersed) and suspended in cryopreservation media containing 10% DMSO, 30% FBS, and 60% CM/F+. Samples b-e were preserved attached to the Matrigel™ layer in the same cryopreservation media. Sample b was preserved without an additional layer of Matrigel™ poured over the cells prior to freezing, c with a Matrigel™ layer poured 1 hr prior to freezing, d with a Matrigel™ layer poured 24 hr prior to freezing, and e with a Matrigel™ layer poured 48 hr prior to freezing. All samples were stored in liquid nitrogen and thawed after 3 days, then grown for 1-2 weeks. Colonies were then counted to determine colony recovery. Error bars represent SEM for at least four independent trials.
Loading cells with 35 mM trehalose for 24 hours prior to freezing, and then freezing in medium containing DMSO results in an increase in the number of adherent colonies following thawing; virtually all colonies remain attached to the surface and can grow (FIG. 10). […]

In data set [3] the test system is SSEA4 expression on HES cells. The data set can be described thus: SSEA4 expression on cryopreserved HES cells by flow cytometry. It counts as cell-based, human. Conditions: attached to Matrigel, loaded with 35 mM trehalose for 1 day; 10% DMSO, 30% FBS, 60% CM/F+ medium. How it is done:
SSEA4 expression was determined by flow cytometry. After thawing, cells were allowed to grow on Matrigel™ in CM/F+ medium for 7 days, then colonies were removed from Matrigel™ by 1 mg/ml collagenase IV (GIBCO/BRL) treatment. Cells were dispersed by treatment with a 0.05% trypsin, 0.53 mM EDTA solution (GIBCO/BRL) for 5-10 minutes and filtered through a 40 μm mesh. 100 μl of the cell suspension containing 5×10^6 cells/ml was added to a sample tube and a control tube. 1 μl of MC813-70 (anti-SSEA4) (Kannagi et al. 1983) was added to the test tube and 5 μl of 1 mg/ml mouse IgG (Sigma) was added to the control tube. Tubes were vortexed and incubated on ice for 30 min. […] Samples were analyzed using a FACScan flow cytometer (Becton Dickinson) and Cellquest software (Becton Dickinson). […] The fluorescein signal was obtained through a 530/30 band pass filter and the mean fluorescence values for the IgG control and test samples were determined.
Furthermore, in addition to retention of OCT4 expression (see FIG. 6), applicants observed that when HES colonies were frozen in suspension in cryovials, adherent to Matrigel™, embedded in Matrigel™, and loaded with trehalose were able to maintain SSEA4 expression after recovery (FIG. 11, Table 1). […] The gated region for all samples was determined from the positive control (Sample A). […]
A general note: Flow cytometry measures light scatter and fluorescence of single cells or particles in a stream.

Data set [4] relates to HES cells. Kind of data set: Toxicity of trehalose in growth medium. The settings on record: cell exposure to growth medium containing trehalose. It counts as cell-based, human.
A further data set concerns human keratinocytes. The settings on record: intracellular trehalose on the order of 0.2M; cited from earlier work.
A further data set deals with murine 3T3 fibroblasts. The settings on record: intracellular trehalose on the order of 0.2M; cited from earlier work.
Another data set relates to human pancreatic islets. The settings on record: trehalose formulations added to cryopreserved islets; cited from earlier work.
The subject of data set [5] is hematopoeitic precursor cells. The settings on record: trehalose added to cryopreservation media containing DMSO and FBS; cited from earlier work.

`C[S+](C)[O-]` [DMSO, dimethyl sulfoxide]: the “protection from membrane rupture during cryopreservation” value in the data set on HES cells [1] is given as “protect HES cells from membrane rupture”.
On to `OC[C@H]1O[C@H](O[C@H]2O[C@H](CO)[C@@H](O)[C@H](O)[C@H]2O)[C@H](O)[C@@H](O)[C@@H]1O` [trehalose], for which the “increase in viability compared to DMSO alone” value in the data set with HES cells [2] (35 mM trehalose loaded 24 hours, 10% DMSO and FBS above 50%, p<0.05) is 25%. The “viability vs loading for 24 hours or not loading” value in the data set with HES cells [2] (35 mM trehalose loaded 48 hours) is “lower viability”. In the data set on HES cells [2] (35 mM trehalose loading, 10% DMSO and FBS concentrations less than 50%), the “additional protection during freezing and thawing” value was “no additional protection”. In addition, the “protection during freezing and thawing” value with HES cells [2] (35 mM trehalose loading, absence of DMSO) is “no protection”. In addition, the colonies recovered in the data set with HES colonies (loaded with 35 mM trehalose for 24 hours) was 82%±5%; with HES colonies (loaded with 35 mM trehalose for 48 hours), 48%±10%. Also, the “Percent of cells gated (SSEA4)” value in data set [3] is on record as 81.5. The “trehalose concentration in growth medium causing toxicity” value with HES cells [4] is reported as “greater than 35 mM”. Also, the “cells surviving a freeze-thaw cycle” value with human keratinocytes and with murine 3T3 fibroblasts was “approximately 75%” throughout. Also, in the data set with human pancreatic islets, the viable cell recovery entry is listed as “doubles”. Also, the increase in viability in [5] is given as 7-20%.
